Experimental data: patent US20230398130A1, “METHODS AND COMPOSITIONS FOR DIFFERENTIATING STEM CELLS” (Massachusetts Institute of Technology, priority 2020, published 2023)

Tests used:
ISC-enriched organoids [1] = experiment: Primary screen, 384-well 2.5-D organoid differentiation (ENR+CD, 6 days): basal lysozyme secretion (LYZ.NS); assay type: cell-based, murine; settings: for Dose.FC.LYZ.NS (log 2 fold change) / Dose.FC.LYZ.NS (log 2 fold change, basal lysozyme secretion): vs plate median
Source text: (§1) High-throughput screening.

ISC-enriched organoids [2] = experiment: Primary screen, 384-well 2.5-D organoid differentiation (ENR+CD, 6 days, Target Selective Inhibitor Library, vs whole-plate median): ATP (CellTiter-Glo 3D, CTG); settings: for Dose.FC.CTG (log 2 fold change) / Dose.FC.CTG (log 2 fold change, ATP): vs plate median
ISC-enriched organoids [3] = experiment: Primary screen, 384-well 2.5-D organoid differentiation (ENR+CD, 6 days): carbachol-induced lysozyme secretion (LYZ.S); assay type: cell-based, murine; settings: vs plate median; for Dose.FC.LYZ.S (log 2 fold change): primary screen
Source text: as §1

SMILES | Z.LYZ.NS (standard z score) (ISC-enriched organoids [1]; dose 10.00 uM) | Dose.FC.LYZ.NS (log 2 fold change, basal lysozyme secretion) (ISC-enriched organoids [1]; dose 10.00 uM) | Z.CTG (standard z score) (ISC-enriched organoids [2]; dose 10.00 uM) | Dose.FC.CTG (log 2 fold change, ATP) (ISC-enriched organoids [2]; dose 10.00 uM) | Dose.FC.LYZ.S (log 2 fold change, carbachol-induced lysozyme secretion) (ISC-enriched organoids [3]; dose 10.00 uM) | Z.LYZ.NS (standard z score) (ISC-enriched organoids [1]; dose 0.08 uM) | Dose.FC.LYZ.NS (log 2 fold change, basal lysozyme secretion) (ISC-enriched organoids [1]; dose 0.08 uM) | Z.LYZ.NS (standard z score) (ISC-enriched organoids [1]; dose 0.40 uM) | Dose.FC.LYZ.NS (log 2 fold change, basal lysozyme secretion) (ISC-enriched organoids [1]; dose 0.40 uM) | Z.LYZ.NS (standard z score) (ISC-enriched organoids [1]; dose 2.00 uM) | Dose.FC.LYZ.NS (log 2 fold change, basal lysozyme secretion) (ISC-enriched organoids [1]; dose 2.00 uM) | Z.CTG (standard z score) (ISC-enriched organoids [2]; dose 0.08 uM) | Dose.FC.CTG (log 2 fold change, ATP) (ISC-enriched organoids [2]; dose 0.08 uM) | Z.CTG (standard z score) (ISC-enriched organoids [2]; dose 0.40 uM) | Dose.FC.CTG (log 2 fold change, ATP) (ISC-enriched organoids [2]; dose 0.40 uM) | Z.CTG (standard z score) (ISC-enriched organoids [2]; dose 2.00 uM) | Dose.FC.CTG (log 2 fold change, ATP) (ISC-enriched organoids [2]; dose 2.00 uM) | Dose.FC.LYZ.S (log 2 fold change, carbachol-induced lysozyme secretion) (ISC-enriched organoids [3]; dose 0.08 uM) | Dose.FC.LYZ.S (log 2 fold change, carbachol-induced lysozyme secretion) (ISC-enriched organoids [3]; dose 0.40 uM) | Dose.FC.LYZ.S (log 2 fold change, carbachol-induced lysozyme secretion) (ISC-enriched organoids [3]; dose 2.00 uM) | other results
COc1cc2c(N3CCN(C(=O)Nc4ccc(OC(C)C)cc4)CC3)ncnc2cc1OCCCN1CCCCC1 [Tandutinib (MLN518)] | – | – | – | – | – | – | – | – | – | – | – | – | – | – | – | – | – | – | – | – | Z.LYZ.NS (standard z score) (ISC-enriched organoids [1]; Dose 0.08 uM, primary screen): 0.828; Dose.FC.LYZ.NS (log 2 fold change) (ISC-enriched organoids [1]; Dose 0.08 uM, primary screen): 0.095; Z.LYZ.NS (standard z score) (ISC-enriched organoids [1]; Dose 0.40 uM, primary screen): 1.066; Dose.FC.LYZ.NS (log 2 fold change) (ISC-enriched organoids [1]; Dose 0.40 uM, primary screen): 0.122; Z.LYZ.NS (standard z score) (ISC-enriched organoids [1]; Dose 2.00 uM, primary screen): 1.012; Dose.FC.LYZ.NS (log 2 fold change) (ISC-enriched organoids [1]; Dose 2.00 uM, primary screen): 0.116; Z.LYZ.NS (standard z score) (ISC-enriched organoids [1]; Dose 10.00 uM, primary screen): 0.407; Dose.FC.LYZ.NS (log 2 fold change) (ISC-enriched organoids [1]; Dose 10.00 uM, primary screen): 0.047; Z.CTG (standard z score) (ISC-enriched organoids [2]; Dose 0.08 uM, primary screen): 1.397; Dose.FC.CTG (log 2 fold change) (ISC-enriched organoids [2]; Dose 0.08 uM, primary screen): 0.585; Z.CTG (standard z score) (ISC-enriched organoids [2]; Dose 0.40 uM, primary screen): 0.845; Dose.FC.CTG (log 2 fold change) (ISC-enriched organoids [2]; Dose 0.40 uM, primary screen): 0.354; Z.CTG (standard z score) (ISC-enriched organoids [2]; Dose 2.00 uM, primary screen): 0.856; Dose.FC.CTG (log 2 fold change) (ISC-enriched organoids [2]; Dose 2.00 uM, primary screen): 0.358; Z.CTG (standard z score) (ISC-enriched organoids [2]; Dose 10.00 uM, primary screen): 1.401; Dose.FC.CTG (log 2 fold change) (ISC-enriched organoids [2]; Dose 10.00 uM, primary screen): 0.586; Dose.FC.LYZ.S (log 2 fold change) (ISC-enriched organoids [3]; Dose 0.08 uM): 0.145; Dose.FC.LYZ.S (log 2 fold change) (ISC-enriched organoids [3]; Dose 0.40 uM): 0.178; Dose.FC.LYZ.S (log 2 fold change) (ISC-enriched organoids [3]; Dose 2.00 uM): 0.093; Dose.FC.LYZ.S (log 2 fold change) (ISC-enriched organoids [3]; Dose 10.00 uM): 0.100
CO[C@H]1C[C@@H]2CC[C@@H](C)[C@@](O)(O2)C(=O)C(=O)N2CCCC[C@H]2C(=O)O[C@H]([C@H](C)C[C@@H]2CC[C@@H](OC(=O)C(C)(CO)CO)[C@H](OC)C2)CC(=O)[C@H](C)/C=C(\C)[C@@H](O)[C@@H](OC)C(=O)[C@H](C)C[C@H](C)/C=C/C=C/C=C/1C [Temsirolimus (CCI-779, NSC 683864)] | 1.035 | 0.119 | 0.478 | 0.200 | 0.153 | – | – | – | – | – | – | – | – | – | – | – | – | – | – | – | Z.LYZ.NS (standard z score) (ISC-enriched organoids [1]; Dose 0.08 uM, primary screen): 0.790; Dose.FC.LYZ.NS (log 2 fold change) (ISC-enriched organoids [1]; Dose 0.08 uM, primary screen): 0.091; Z.LYZ.NS (standard z score) (ISC-enriched organoids [1]; Dose 0.40 uM, primary screen): 0.763; Dose.FC.LYZ.NS (log 2 fold change) (ISC-enriched organoids [1]; Dose 0.40 uM, primary screen): 0.088; Z.LYZ.NS (standard z score) (ISC-enriched organoids [1]; Dose 2.00 uM, primary screen): 1.494; Dose.FC.LYZ.NS (log 2 fold change) (ISC-enriched organoids [1]; Dose 2.00 uM, primary screen): 0.172; Z.CTG (standard z score) (ISC-enriched organoids [2]; Dose 0.08 uM, primary screen): 1.228; Dose.FC.CTG (log 2 fold change) (ISC-enriched organoids [2]; Dose 0.08 uM, primary screen): 0.514; Z.CTG (standard z score) (ISC-enriched organoids [2]; Dose 0.40 uM, primary screen): 1.393; Dose.FC.CTG (log 2 fold change) (ISC-enriched organoids [2]; Dose 0.40 uM, primary screen): 0.583; Z.CTG (standard z score) (ISC-enriched organoids [2]; Dose 2.00 uM, primary screen): 1.382; Dose.FC.CTG (log 2 fold change) (ISC-enriched organoids [2]; Dose 2.00 uM, primary screen): 0.578; Dose.FC.LYZ.S (log 2 fold change) (ISC-enriched organoids [3]; Dose 0.08 uM): 0.082; Dose.FC.LYZ.S (log 2 fold change) (ISC-enriched organoids [3]; Dose 0.40 uM): 0.152; Dose.FC.LYZ.S (log 2 fold change) (ISC-enriched organoids [3]; Dose 2.00 uM): 0.132
C[C@H](Cn1cnc2c(N)ncnc21)OCP(=O)(O)O [Tenofovir] | −1.899 | −0.218 | −0.804 | −0.337 | −0.271 | 0.673 | 0.077 | −0.662 | −0.076 | −1.153 | −0.132 | 0.045 | 0.019 | −0.200 | −0.084 | −0.308 | −0.129 | 0.045 | −0.080 | −0.171 | –
CN(C)CCCCC(=O)Nc1ccc(NC(=S)NC(=O)c2ccc(C(C)(C)C)cc2)cc1 [Tenovin-6] | −1.671 | −0.192 | −3.414 | −1.429 | −0.344 | 1.050 | 0.121 | −0.463 | −0.053 | −1.686 | −0.194 | 0.165 | 0.069 | −1.209 | −0.506 | −2.654 | −1.111 | 0.028 | −0.109 | −0.328 | –
O=C(NCc1ccccc1)c1csc(Nc2ccncn2)n1 [Thiazovivin] | −0.605 | −0.069 | 0.451 | 0.189 | 0.037 | 0.780 | 0.090 | 0.611 | 0.070 | 0.205 | 0.024 | 0.337 | 0.141 | 0.271 | 0.113 | 0.746 | 0.312 | 0.142 | 0.060 | 0.064 | –
COc1ccc2cc(-c3nc(-c4ccc([S+](C)[O-])cc4)[nH]c3-c3ccncc3)ccc2c1 (centres unmarked) [Tie2 kinase inhibitor] | −0.274 | −0.031 | −1.311 | −0.549 | −0.097 | 0.080 | 0.009 | 0.019 | 0.002 | 1.577 | 0.181 | 0.012 | 0.005 | 0.177 | 0.074 | −0.750 | −0.314 | 0.018 | −0.021 | 0.024 | –
C[C@@H]1CCN(C(=O)CC#N)C[C@@H]1N(C)c1ncnc2[nH]ccc12 [Tofacitinib (CP-690550, Tasocitinib)] | −0.036 | −0.004 | 0.563 | 0.236 | 0.010 | −0.146 | −0.017 | −0.132 | −0.015 | −0.061 | −0.007 | 0.312 | 0.130 | 0.595 | 0.249 | 0.278 | 0.117 | 0.022 | 0.010 | 0.025 | –
